According to patent US6610736B1, “16-Halogen-epothilone derivatives, method for producing them and their pharmaceutical use” (Schering AG, priority 1999, dated 2003):

Key:
[1] = tested on: multi-drug-resistant NCl/ADR carcinoma cell line; test: growth inhibition of multi-drug-resistant NCl/ADR cells, crystal-violet assay; format: cell-based, human; conditions: for IC50: crystal-violet assay; for Selectivity = IC50 (NCl/ADR) : IC50 (MCF-7): ratio of IC50 NCl/ADR to MCF-7; for selectivity in multi-drug-resistant cell line NCl/ADR in comparison to epothilone B: statement on Table 2
Source text: (§1) a) IC50 values [nM] for the growth inhibition of human MCF-7 breast- and multi-drug-resistant NCl/ADR carcinoma cell lines of the epothilone derivatives with 13Z-olefins in a crystal-violet assay in comparison to epothilone D.
(§2) b) IC50 values [nM] for the growth inhibition of human MCF-7 breast- and multidrug-resistant NCl/ADR carcinoma cell lines of the epothilone derivatives with 13,14-α-epoxide in a crystal-violet assay in comparison to epothilone B.

[2] = tested on: human MCF-7 breast carcinoma cell line; test: growth inhibition of MCF-7 cells, crystal-violet assay; format: cell-based; conditions: for IC50: crystal-violet assay; for active strength in comparison to reference compound epothilone D: statement on Table 1; for active strength in comparison to reference compound epothilone B: statement on Table 2
Source text: as §1, §2

[3] = Table 1, 13Z-olefins, in comparison to epothilone D
[4] = Table 2, 13,14-α-epoxides, in comparison to epothilone B

| Molecule | IC50 [1, 3] | Selectivity = IC50 (NCl/ADR) : IC50 (MCF-7) ([1]; Table 1) | IC50 [2, 3] | IC50 [1, 4] | Selectivity = IC50 (NCl/ADR) : IC50 (MCF-7) ([1]; Table 2) | IC50 [2, 4] | active strength in comparison to reference compound epothilone D [2] | further results |
| --- | --- | --- | --- | --- | --- | --- | --- | --- |
| C/C1=C/C[C@@H](/C(F)=C/c2csc(C)n2)OC(=O)C[C@H](O)C2(CCC2)C(=O)[C@H](C)[C@@H](O)[C@@H](C)CCC1 [Example 9] | 10 nM | 2.0 | 5 nM |  |  |  | significantly higher active strength |  |
| C/C1=C/C[C@@H](/C(F)=C/c2csc(C)n2)OC(=O)C[C@H](O)C(C)(C)C(=O)[C@H](C)[C@@H](O)[C@@H](C)CCC1 [Example 1, (4S,7R,8S,9S,13(Z),16S(Z))-4,8-Dihydroxy-16-(1-fluoro-2-(2-methyl-4-thiazolyl)ethenyl)-1-oxa-5,5,7,9,13-pentamethyl-cyclohexadec-13-ene-2,6-dione] | 12 nM | 2.8 | 4.3 nM |  |  |  | significantly higher active strength |  |
| C/C1=C/C[C@@H](/C(Cl)=C/c2csc(C)n2)OC(=O)C[C@H](O)C(C)(C)C(=O)[C@H](C)[C@@H](O)[C@@H](C)CCC1 [Example 5, (4S,7R,8S,9S,13(Z),16S(Z))-4,8-Dihydroxy-16-(1-chloro-2-(2-methyl-4-thiazolyl)ethenyl)-1-oxa-5,5,7,9,13-pentamethyl-cyclohexadec-13-ene-2,6-dione] | 37 nM | 7.3 | 5.1 nM |  |  |  |  |  |
| C/C1=C/C[C@@H](/C(C)=C/c2csc(C)n2)OC(=O)C[C@H](O)C(C)(C)C(=O)[C@H](C)[C@@H](O)[C@@H](C)CCC1 [Epothilone D] | 50 nM | 2.2 | 23 nM |  |  |  |  |  |
| CC[C@H]1C(=O)C(C)(C)[C@@H](O)CC(=O)O[C@H](/C(F)=C/c2ccccn2)C/C=C(/C)CCC[C@H](C)[C@@H]1O [Example 17, (4S,7R,8S,9S,13Z,16S(Z))-4,8-Dihydroxy-16-(1-fluoro-2-(2-pyridyl)ethenyl)-7-ethyl-1-oxa-5,5,9,13-tetramethyl-cyclohexadec-13-ene-2,6-dione] | 33 nM | 5.4 | 6.1 nM |  |  |  | significantly higher active strength |  |
| (4S,7R,8S,9S,13(Z),16S(Z)-4,8-Dihydroxy-9,13-diethyl-7-ethyl-16-(1-fluoro-2-(2-methyl-4-thiazolyl)ethenyl)-1-oxa-5,5-(1,3-trimethylene)cyclohexadec-13-ene-2,6-dione [Example 13] | 28 nM | 4.8 | 5.8 nM |  |  |  | significantly higher active strength |  |
| C/C(=C\c1csc(C)n1)[C@@H]1C[C@@H]2O[C@]2(C)CCC[C@H](C)[C@H](O)[C@@H](C)C(=O)C(C)(C)[C@@H](O)CC(=O)O1 [Epothilone B, reference compound] |  |  |  | 3.5 nM | 5.8 | 0.6 nM |  |  |
| CC(=O)O[C@H]1C(=O)[C@@]2(C)[C@H]([C@H](OC(=O)c3ccccc3)[C@]3(O)C[C@H](OC(=O)[C@H](O)[C@@H](NC(=O)c4ccccc4)c4ccccc4)C(C)=C1C3(C)C)[C@]1(OC(C)=O)CO[C@@H]1C[C@@H]2O [Taxol, reference compound] |  | >>25 |  | > 100 nM | >>25 |  |  | IC50 ([1]; Homo sapiens, Table 1, 13Z-olefins, in comparison to epothilone D): > 100 nM; IC50 ([2]; Homo sapiens, MCF7, Table 1, 13Z-olefins, in comparison to epothilone D): 4 nM |

Now from value to molecule, other results behind:

| IC50 [1, 3] | Selectivity = IC50 (NCl/ADR) : IC50 (MCF-7) ([1]; Table 1) | IC50 [2, 3] | IC50 [1, 4] | Selectivity = IC50 (NCl/ADR) : IC50 (MCF-7) ([1]; Table 2) | IC50 [2, 4] | Molecule | active strength in comparison to reference compound epothilone D [2] | further results |
| --- | --- | --- | --- | --- | --- | --- | --- | --- |
|  |  |  | 3.5 nM | 7.0 | 0.5 nM | CC[C@H]1C(=O)C2(CCC2)[C@@H](O)CC(=O)O[C@H](/C(F)=C/c2csc(C)n2)C[C@@H]2O[C@]2(C)CCC[C@H](C)[C@@H]1O [Example 14A, (1S,3S(Z),7S,10R,11S,12S,16R)-7,11-Dihydroxy-12,16-dimethyl-10-ethyl-3-(1-fluoro-2-(2-methyl-4-thiazolyl)ethenyl) 8,8-(1,3-trimethylene)-4,17-dioxabicyclo[14.1.0]hepta-decane-5,9-dione] |  | active strength in comparison to reference compound epothilone B [2]: comparable or significantly higher active strength |
|  |  |  | 1.4 nM | 4.7 | 0.3 nM | Cc1nc(/C=C(\F)[C@@H]2C[C@@H]3O[C@]3(C)CCC[C@H](C)[C@H](O)[C@@H](C)C(=O)C(C)(C)[C@@H](O)CC(=O)O2)cs1 [Example 3B, (1S,3S(Z),7S,10R,11S,12S,16R)-7,11-dihydroxy-3-(1-fluoro-2-(2-methyl-4-thiazolyl)ethenyl)-8,8,10,12,16-pentamethyl-4,17-dioxabicyclo[14.1.0]heptadecane-5,9-dione] |  | selectivity in multi-drug-resistant cell line NCl/ADR in comparison to epothilone B [1]: improved selectivity; active strength in comparison to reference compound epothilone B [2]: comparable or significantly higher active strength |
|  |  |  | 6 nM | 7.5 | 0.8 nM | Cc1nc(/C=C(\Cl)[C@@H]2C[C@@H]3O[C@]3(C)CCC[C@H](C)[C@H](O)[C@@H](C)C(=O)C(C)(C)[C@@H](O)CC(=O)O2)cs1 [Example 7A, (1S,3S(Z),7S,10R,11S,12S,16R)-7,11-Dihydroxy-3-(1-chloro-2-(2-methyl-4-thiazolyl)ethenyl)-8,8,10,12,16-pentamethyl-4,17-dioxabicyclo[14.1.0]heptadecane-5,9-dione] |  |  |
|  |  |  | 4.6 nM | 7.6 | 0.6 nM | CC[C@H]1C(=O)C(C)(C)[C@@H](O)CC(=O)O[C@H](/C(F)=C/c2ccccn2)C[C@@H]2O[C@]2(C)CCC[C@H](C)[C@@H]1O [Example 20A, (1S,3S(Z),7S,10R,11S,12S,16R)-7,11-Dihydroxy-10-ethyl-3-(1-fluoro-2-(2-pyridyl)ethenyl)-8,8,12,16-tetramethyl-4,17-dioxabicyclo[14.1.0]heptadecane-5,9-dione] |  | active strength in comparison to reference compound epothilone B [2]: comparable or significantly higher active strength |
|  |  |  | 3.9 nM | 1.9 | 2.1 nM | Cc1nc(C=C(F)C2CC3OC3(C)CCCC(C)C(O)C(C)C(=O)C3(CCC3)C(O)CC(=O)O2)cs1 [Example 10A, (1S,3S(Z),7S,10R,11S,12S,16R)-7,11-Dihydroxy-3-((1-fluoro)-2-(2-methyl-4-thiazolyl)ethenyl)-10,12,16-trimethyl-8,8-(1,3-trimethylene)-4,17-dioxabicyclo[14.1.0]hepta-deca-5,9-dione] |  | selectivity in multi-drug-resistant cell line NCl/ADR in comparison to epothilone B [1]: improved selectivity |
